In PubChem BioAssay (NCI):
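1) Cells in 96-well plates. 2) Compound, 48 h, 5 concentrations. 3) Linear interpolation between surrounding doses. 4) Unreached endpoint = highest concentration. The concentration for full growth arrest is given as TGI.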

Legend:
Experiment in all cases: DTP human tumour cell line panel, 48 h
HCC-2998 colon = test system: HCC-2998 colon
K-562 leukemia = test system: K-562 leukemia
UACC-62 melanoma = test system: UACC-62 melanoma
A498 renal = test system: A498 renal
RPMI-8226 leukemia = test system: RPMI-8226 leukemia
MCF7 breast = test system: MCF7 breast
NCI-H460 lung = test system: NCI-H460 lung
CAKI-1 renal = test system: CAKI-1 renal
OVCAR-8 ovarian = test system: OVCAR-8 ovarian
MALME-3M melanoma = test system: MALME-3M melanoma
SW-620 colon = test system: SW-620 colon
COLO 205 colon = test system: COLO 205 colon
MDA-MB-435 = test system: MDA-MB-435
RXF 393 renal = test system: RXF 393 renal
MDA-MB-231 breast = test system: MDA-MB-231 breast
SR leukemia = test system: SR leukemia
TK-10 renal = test system: TK-10 renal
SNB-19 CNS = test system: SNB-19 CNS
A549 NSCLC = test system: A549 NSCLC
SF-268 CNS = test system: SF-268 CNS
BT-549 breast = test system: BT-549 breast
SF-295 CNS = test system: SF-295 CNS
HOP-62 NSCLC = test system: HOP-62 NSCLC
LOX IMVI melanoma = test system: LOX IMVI melanoma
SN12C renal = test system: SN12C renal
HS 578T breast = test system: HS 578T breast
MDA-N = test system: MDA-N
OVCAR-3 ovarian = test system: OVCAR-3 ovarian
UACC-257 melanoma = test system: UACC-257 melanoma
NCI/ADR-RES ovarian = test system: NCI/ADR-RES ovarian
NCI-H23 lung = test system: NCI-H23 lung
SF-539 CNS = test system: SF-539 CNS
KM12 colon = test system: KM12 colon
SK-MEL-28 melanoma = test system: SK-MEL-28 melanoma
SK-OV-3 ovarian = test system: SK-OV-3 ovarian
DU-145 prostate = test system: DU-145 prostate
SNB-75 CNS = test system: SNB-75 CNS
NCI-H226 lung = test system: NCI-H226 lung
EKVX NSCLC = test system: EKVX NSCLC
OVCAR-4 ovarian = test system: OVCAR-4 ovarian
PC-3 prostate = test system: PC-3 prostate
HCT-15 colon = test system: HCT-15 colon
ACHN renal = test system: ACHN renal
SK-MEL-2 melanoma = test system: SK-MEL-2 melanoma
HL-60(TB) leukemia = test system: HL-60(TB) leukemia
OVCAR-5 ovarian = test system: OVCAR-5 ovarian
M14 melanoma = test system: M14 melanoma
IGROV1 ovarian = test system: IGROV1 ovarian
NCI-H522 lung = test system: NCI-H522 lung
SK-MEL-5 melanoma = test system: SK-MEL-5 melanoma
786-0 renal = test system: 786-0 renal
HT29 colon = test system: HT29 colon
U251 CNS = test system: U251 CNS
HCT-116 colon = test system: HCT-116 colon
UO-31 renal = test system: UO-31 renal
HOP-92 NSCLC = test system: HOP-92 NSCLC
CCRF-CEM leukemia = test system: CCRF-CEM leukemia

Cc1cc(Cl)ccc1OCC(=O)Oc1c(Cl)c(Cl)c(Cl)c(Cl)c1Cl
TGI (HCC-2998 colon): 48.9 µM
TGI (K-562 leukemia): > 100 µM
TGI (UACC-62 melanoma): 46.6 µM
TGI (A498 renal): 62.9 µM
TGI (RPMI-8226 leukemia): 61.7 µM
TGI (MCF7 breast): 96.7 µM
TGI (NCI-H460 lung): 51.9 µM
TGI (CAKI-1 renal): > 100 µM
TGI (OVCAR-8 ovarian): 66.8 µM
TGI (MALME-3M melanoma): 45.3 µM
TGI (SW-620 colon): > 100 µM
TGI (COLO 205 colon): 78 µM
TGI (MDA-MB-435): 68.9 µM
TGI (RXF 393 renal): 37.3 µM
TGI (MDA-MB-231 breast): 38.1 µM
TGI (SR leukemia): 60 µM
TGI (TK-10 renal): 69.1 µM
TGI (SNB-19 CNS): 75.5 µM
TGI (A549 NSCLC): 66.3 µM
TGI (SF-268 CNS): > 100 µM
TGI (BT-549 breast): > 100 µM
TGI (SF-295 CNS): 67.9 µM
TGI (HOP-62 NSCLC): 47.2 µM
TGI (LOX IMVI melanoma): 51.6 µM
TGI (SN12C renal): 62.9 µM
TGI (HS 578T breast): 66.3 µM
TGI (MDA-N): 74.5 µM
TGI (OVCAR-3 ovarian): 39 µM
TGI (UACC-257 melanoma): 45.3 µM
TGI (NCI/ADR-RES ovarian): 67.6 µM
TGI (NCI-H23 lung): 95.5 µM
TGI (SF-539 CNS): > 100 µM
TGI (KM12 colon): 52.4 µM
TGI (SK-MEL-28 melanoma): > 100 µM
TGI (SK-OV-3 ovarian): 83.8 µM
TGI (DU-145 prostate): 49.2 µM
TGI (SNB-75 CNS): 62.6 µM
TGI (NCI-H226 lung): 53.8 µM
TGI (EKVX NSCLC): 56.4 µM
TGI (OVCAR-4 ovarian): 92.1 µM
TGI (PC-3 prostate): 80.1 µM
TGI (HCT-15 colon): 71.7 µM
TGI (ACHN renal): > 100 µM
TGI (SK-MEL-2 melanoma): 67.7 µM
TGI (HL-60(TB) leukemia): > 100 µM
TGI (OVCAR-5 ovarian): 59.2 µM
TGI (M14 melanoma): 71.4 µM
TGI (IGROV1 ovarian): 79.5 µM
TGI (NCI-H522 lung): 48.4 µM
TGI (SK-MEL-5 melanoma): 61.9 µM
TGI (786-0 renal): 85.5 µM
TGI (HT29 colon): 69.1 µM
TGI (U251 CNS): 70.4 µM
TGI (HCT-116 colon): 45.8 µM
TGI (UO-31 renal): 32 µM
TGI (HOP-92 NSCLC): 40 µM

COc1cccc(N2CCc3c(C)c(C#N)c4nc5ccccc5n4c32)c1
TGI (HCC-2998 colon): > 100 µM
TGI (K-562 leukemia): > 100 µM
TGI (CCRF-CEM leukemia): > 100 µM
TGI (UACC-62 melanoma): > 100 µM
TGI (A498 renal): > 100 µM
TGI (MCF7 breast): > 100 µM
TGI (NCI-H460 lung): > 100 µM
TGI (OVCAR-8 ovarian): > 100 µM
TGI (MALME-3M melanoma): > 100 µM
TGI (SW-620 colon): > 100 µM
TGI (COLO 205 colon): > 100 µM
TGI (MDA-MB-435): > 100 µM
TGI (RXF 393 renal): > 100 µM
TGI (MDA-MB-231 breast): > 100 µM
TGI (TK-10 renal): > 100 µM
TGI (SNB-19 CNS): > 100 µM
TGI (A549 NSCLC): > 100 µM
TGI (SF-268 CNS): > 100 µM
TGI (BT-549 breast): > 100 µM
TGI (SF-295 CNS): > 100 µM
TGI (HOP-62 NSCLC): > 100 µM
TGI (LOX IMVI melanoma): > 100 µM
TGI (SN12C renal): > 100 µM
TGI (HS 578T breast): 60.7 µM
TGI (MDA-N): > 100 µM
TGI (OVCAR-3 ovarian): > 100 µM
TGI (UACC-257 melanoma): > 100 µM
TGI (NCI/ADR-RES ovarian): > 100 µM
TGI (NCI-H23 lung): > 100 µM
TGI (SF-539 CNS): > 100 µM
TGI (SK-MEL-28 melanoma): > 100 µM
TGI (SK-OV-3 ovarian): > 100 µM
TGI (DU-145 prostate): > 100 µM
TGI (SNB-75 CNS): > 100 µM
TGI (NCI-H226 lung): > 100 µM
TGI (OVCAR-4 ovarian): > 100 µM
TGI (PC-3 prostate): > 100 µM
TGI (HCT-15 colon): > 100 µM
TGI (ACHN renal): > 100 µM
TGI (SK-MEL-2 melanoma): > 100 µM
TGI (HL-60(TB) leukemia): > 100 µM
TGI (OVCAR-5 ovarian): > 100 µM
TGI (M14 melanoma): > 100 µM
TGI (IGROV1 ovarian): > 100 µM
TGI (NCI-H522 lung): > 100 µM
TGI (SK-MEL-5 melanoma): > 100 µM
TGI (786-0 renal): > 100 µM
TGI (HT29 colon): > 100 µM
TGI (U251 CNS): > 100 µM
TGI (HCT-116 colon): > 100 µM
TGI (UO-31 renal): > 100 µM
TGI (HOP-92 NSCLC): > 100 µM
